Experimental data published in patent US4368267A, “Epoxidation of lower α-olefins” (priority 1980, dated 1983).

Assays:
Type in all cases: biochemical
[1] = test system: P(40), P(80), S(80) cell fractions of Methylosinus trichosporium (OB3b, NRRL B-11,196); experiment: Methane and propylene oxidation by cell fractions; details: S(80) fraction, 30° C.
Protocol: (§1) Cells were washed twice with 25 mM potassium phosphate buffer, pH 7.0 containing 5 mM MgCl2. Cells were suspended in the same buffer. The cell suspensions at 4° C. were disintegrated by a single passage through a French Pressure cell (15,000 lb./in.^2) and centrifuged at 5000×g. for 15 min. to remove unbroken bacteria. The supernatant solution (crude extract) was then centrifuged at 40,000×g. for 30 min., yielding particulate P(40) and soluble S(40) fractions. The S(40) fraction was subsequently centrifuged at 80,000×g. for 60 min., yielding particulate P(80) and soluble S(80) fractions. The particulate fractions [P(40) and P(80)] were suspended in 25 mM potassium phosphate buffer, pH 7.0, containing 5 mM MgCl2 and homogenized at 4° C.
(§2) The oxidation of methane and propylene by particulate [(P)40 and (P)80] fractions and soluble [S(80)] fraction was measured at 30° C. by estimating the production of methanol and propylene oxide, respectively. The reaction mixtures contained in 1.0 ml: 150 mM potassium phosphate buffer, pH 7.0 containing 5 mM MgCl2, 0.6 ml; […] NADH, and cellular fraction.
(§3) Reaction mixtures were contained in 10 ml vials at 4° C. Vials were sealed with rubber caps. The gaseous phase in the vials was removed using vacuum and then was replaced with a gas mixture of methane or propylene and oxygen at a 1:1, v/v ratio. Oxidation of other gaseous n-alkanes and n-alkenes was examined as described above. For liquid substrates, 10 μl of substrate was used directly.
(§4) The products of epoxidation of n-alkenes and hydroxylation of n-alkanes were assayed by flame ionization gas chromatography using a stainless steel column (12'×1/8") packed with 10% Carbowax 20 M on 80/100 Chromosorb W and Porapak Q column. The column temperature was maintained isothermally at 120° C. The carrier gas flow rate was 30 ml/min. of helium. The various products were identified by retention time comparisons and co-chromatography with authentic standards.
(§5) Specific activities were expressed as μ moles of products formed per hour per mg. protein. Concentrations of protein in various fractions were determined by the method of Lowry et al., J. Biol. Chem. 193: 265-275 (1951).

[2] = test system: P(40), P(80), S(80) cell fractions of Methylobacterium sp. (CRL-26, NRRL B-11,222); experiment: Methane and propylene oxidation by cell fractions; details: 30° C.
Protocol: as §1, §2, §3, §4, §5

[3] = test system: P(40), P(80), S(80) cell fractions of Methylomonas sp. (CRL-17, NRRL B-11,208); experiment: Methane and propylene oxidation by cell fractions; details: 30° C.
Protocol: as §1, §2, §3, §4, §5

[4] = target: T1, P(40), P(80), S(80) cell fractions of Methylococcus capsulatus (Texas, ATCC 19,069) (Methylococcus capsulatus, UniProt G1UBD1+Q603F1+Q607G3); experiment: Methane and propylene oxidation by cell fractions
T1 sequence (G1UBD1 33-414): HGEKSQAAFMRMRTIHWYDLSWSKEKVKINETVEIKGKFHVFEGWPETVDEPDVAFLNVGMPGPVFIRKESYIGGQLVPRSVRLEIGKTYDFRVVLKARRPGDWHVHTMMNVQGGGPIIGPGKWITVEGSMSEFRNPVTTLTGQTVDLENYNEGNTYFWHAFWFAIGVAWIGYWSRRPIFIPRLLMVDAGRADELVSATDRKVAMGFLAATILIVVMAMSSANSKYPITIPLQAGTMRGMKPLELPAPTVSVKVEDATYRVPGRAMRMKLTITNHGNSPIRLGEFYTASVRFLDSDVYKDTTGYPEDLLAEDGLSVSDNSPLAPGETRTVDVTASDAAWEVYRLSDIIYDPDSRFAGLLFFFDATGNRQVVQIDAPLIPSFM
T1 sequence (Q607G3 1-247): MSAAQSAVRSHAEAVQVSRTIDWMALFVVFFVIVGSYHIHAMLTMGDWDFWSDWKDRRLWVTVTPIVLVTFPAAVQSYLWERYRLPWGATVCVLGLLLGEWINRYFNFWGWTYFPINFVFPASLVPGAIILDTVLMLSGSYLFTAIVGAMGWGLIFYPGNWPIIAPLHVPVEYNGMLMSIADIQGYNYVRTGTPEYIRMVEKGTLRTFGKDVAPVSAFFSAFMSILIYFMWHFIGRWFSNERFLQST
T1 sequence (Q603F1 1-260): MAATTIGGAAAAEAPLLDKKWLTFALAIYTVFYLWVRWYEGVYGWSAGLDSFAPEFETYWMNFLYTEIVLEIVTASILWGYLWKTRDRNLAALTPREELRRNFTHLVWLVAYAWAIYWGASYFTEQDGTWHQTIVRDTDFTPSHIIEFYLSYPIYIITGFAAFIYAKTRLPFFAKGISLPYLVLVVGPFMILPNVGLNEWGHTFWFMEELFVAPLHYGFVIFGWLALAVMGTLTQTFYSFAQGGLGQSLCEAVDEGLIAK
Protocol: as §1, §2, §3, §4, §5

[5] = test system: P(40), P(80), S(80) cell fractions of Methylosinus sp. (CRL-15, NRRL B-11,202); experiment: Oxidation of n-alkanes and n-alkenes by cell fractions; details: for Uninhibited rate of oxidation: no inhibitor; for NADH Oxidized / O2 Consumed / Product Formed: substrate 5.0 μmoles; for Rate of Product Formation (substrate to 1,2-epoxide or alcohol) / 100% activity, product formed (storage study) / 100% activity, product formed (pH study) / 100% activity, product formed (temperature study): P(40) particulate fraction; for 100% activity, product formed (storage study): before storage at 0°-4° C.; for 100% activity, product formed (pH study): optimum pH 7.0; for 100% activity, product formed (temperature study): optimum temperature 35° C.
Protocol: as §1
[…] The reaction mixtures contained in 1.0 ml: 150 mM potassium phosphate buffer, pH 7.0 containing 5 mM MgCl2, 0.6 ml; […] NADH, and cellular fraction.
as §3, §4, §5

C [Methane]
Methane-Oxidizing Activity, S(80) [1]: 0 μmoles of product formed per h | Methane-Oxidizing Activity, P(40) ([2]; P(40) fraction): 2.7 μmoles of product formed per h | Methane-Oxidizing Activity, P(80) ([2]; P(80) fraction): 2.8 μmoles of product formed per h | Methane-Oxidizing Activity, S(80) ([2]; S(80) fraction): 0 μmoles of product formed per h | Methane-Oxidizing Activity, P(40) ([3]; P(40) fraction): 2.9 μmoles of product formed per h | Methane-Oxidizing Activity, P(80) ([3]; P(80) fraction): 2.7 μmoles of product formed per h | Methane-Oxidizing Activity, S(80) ([3]; S(80) fraction): 0 μmoles of product formed per h | % Distribution in Cell Fraction, Methane-Hydroxylating Activity, P(40) ([4]; P(40) fraction): 90% | Methane-Oxidizing Activity, P(40) ([4]; P(40) fraction, 30° C.): 3.8 μmoles of product formed per h | % Distribution in Cell Fraction, Methane-Hydroxylating Activity, P(80) ([4]; P(80) fraction): 10% | Methane-Oxidizing Activity, P(80) ([4]; P(80) fraction, 30° C.): 3.9 μmoles of product formed per h | % Distribution in Cell Fraction, Methane-Hydroxylating Activity, S(80) ([4]; S(80) fraction): 0% | Methane-Oxidizing Activity, S(80) ([4]; S(80) fraction, 30° C.): 0 μmoles of product formed per h | Methane-Oxidizing Activity, P(40) ([5]; P(40) fraction, 30° C.): 4.8 μmoles of product formed per h | Uninhibited rate of oxidation ([5]; P(40) fraction): 4.5 μmoles per hr. per mg. of prot | NADH Oxidized ([5]; P(40) fraction): 4.8 µmol | O2 Consumed ([5]; P(40) fraction): 4.6 µmol | Product Formed ([5]; P(40) fraction): 4.2 µmol | Propylene Oxide Produced ([5]; P(40) fraction, substrate Propylene + Methane (1:1, v/v)): 1.8 μmoles/hr/mg. protein | Propylene Oxide Produced ([5]; P(40) fraction, substrate methane alone): 0 μmoles/hr/mg. protein | Rate of Product Formation (substrate to 1,2-epoxide or alcohol) ([5]; 30° C.): 4.8 μmoles/hr/mg of protein | 100% activity, product formed (storage study) [5]: 4.8 μmoles per hr. per mg. of prot | 100% activity, product formed (pH study) [5]: 4.8 μmoles per hour, per mg protei | 100% activity, product formed (temperature study) [5]: 5.0 μmoles per hour per mg of prot | Methane-Oxidizing Activity, P(80) ([5]; P(80) fraction, 30° C.): 4.2 μmoles of product formed per h | Methane-Oxidizing Activity, S(80) ([5]; S(80) fraction, 30° C.): 0 μmoles of product formed per h

C=CC [Propylene]
Propylene-Oxidizing Activity, S(80) [1]: 0 μmoles of product formed per h | Propylene-Oxidizing Activity, P(40) ([2]; P(40) fraction): 1.2 μmoles of product formed per h | Propylene-Oxidizing Activity, P(80) ([2]; P(80) fraction): 1.1 μmoles of product formed per h | Propylene-Oxidizing Activity, S(80) ([2]; S(80) fraction): 0 μmoles of product formed per h | Propylene-Oxidizing Activity, P(40) ([3]; P(40) fraction): 2.2 μmoles of product formed per h | Propylene-Oxidizing Activity, P(80) ([3]; P(80) fraction): 2.0 μmoles of product formed per h | Propylene-Oxidizing Activity, S(80) ([3]; S(80) fraction): 0 μmoles of product formed per h | % Distribution in Cell Fraction, Propylene-Epoxidizing Activity, P(40) ([4]; P(40) fraction): 89% | Propylene-Oxidizing Activity, P(40) ([4]; P(40) fraction, 30° C.): 2.6 μmoles of product formed per h | % Distribution in Cell Fraction, Propylene-Epoxidizing Activity, P(80) ([4]; P(80) fraction): 11% | Propylene-Oxidizing Activity, P(80) ([4]; P(80) fraction, 30° C.): 2.0 μmoles of product formed per h | % Distribution in Cell Fraction, Propylene-Epoxidizing Activity, S(80) ([4]; S(80) fraction): 0% | Propylene-Oxidizing Activity, S(80) ([4]; S(80) fraction, 30° C.): 0 μmoles of product formed per h | Propylene-Oxidizing Activity, P(40) ([5]; P(40) fraction, 30° C.): 3.8 μmoles of product formed per h | Uninhibited rate of oxidation ([5]; P(40) fraction): 4.1 μmoles per hr. per mg. of prot | NADH Oxidized ([5]; P(40) fraction): 5.0 µmol | O2 Consumed ([5]; P(40) fraction): 4.8 µmol | Product Formed ([5]; P(40) fraction): 4.5 µmol | Propylene Oxide Produced ([5]; P(40) fraction, substrate propylene alone): 4.3 μmoles/hr/mg. protein | Rate of Product Formation (substrate to 1,2-epoxide or alcohol) ([5]; 30° C.): 4.1 μmoles/hr/mg of protein | 100% activity, product formed (storage study) [5]: 4.1 μmoles per hr. per mg. of prot | 100% activity, product formed (pH study) [5]: 4.1 μmoles per hour, per mg protei | 100% activity, product formed (temperature study) [5]: 4.2 μmoles per hour per mg of prot | Propylene-Oxidizing Activity, P(80) ([5]; P(80) fraction, 30° C.): 3.7 μmoles of product formed per h | Propylene-Oxidizing Activity, S(80) ([5]; S(80) fraction, 30° C.): 0 μmoles of product formed per h
